Data: patent EP1944296A1, “Amorphous phase of a substituted pyrazoline, its preparation and use as medicaments” (Laboratorios del Dr. Esteve S.A., priority 2007, dated 2008)

Molecular target: T1, recombinant human cannabinoid 1 receptor (CB1) (Homo sapiens, UniProt P21554)
T1 construct: expressed in transfected cells; membrane preparation
Test: In vitro determination of antagonism to CB1-receptor, [35S]GTPγS binding assay
Format: biochemical
Settings: compound 1 µM vs agonist WIN 55,212-2; 100 % = effect of Rimonabant (1 µM)
Experimental: The reaction is performed in 96-well plates. […] Radioactivity is determined using a Wallac Microbeta Trilux. Each experiment is performed at least in duplicate.
The average of basal [^35S]GTPγS binding is subtracted from all binding data.

T1 sequence (P21554 whole entry): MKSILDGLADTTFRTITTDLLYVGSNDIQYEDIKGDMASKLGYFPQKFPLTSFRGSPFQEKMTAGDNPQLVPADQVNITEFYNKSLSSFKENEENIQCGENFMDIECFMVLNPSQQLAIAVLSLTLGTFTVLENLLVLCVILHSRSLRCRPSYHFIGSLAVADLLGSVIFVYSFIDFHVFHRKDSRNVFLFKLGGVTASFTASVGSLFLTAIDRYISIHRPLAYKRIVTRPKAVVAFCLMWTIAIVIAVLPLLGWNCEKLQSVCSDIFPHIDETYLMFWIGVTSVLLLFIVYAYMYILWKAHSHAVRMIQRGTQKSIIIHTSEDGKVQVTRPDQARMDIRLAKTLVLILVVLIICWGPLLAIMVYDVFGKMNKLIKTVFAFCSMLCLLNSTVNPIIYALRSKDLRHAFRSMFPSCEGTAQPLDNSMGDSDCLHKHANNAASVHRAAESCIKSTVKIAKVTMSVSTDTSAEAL

Antagonism: 106%
Structure (SMILES): O=C(NN1CCCCC1)C1=NN(c2ccc(Cl)cc2Cl)[C@@H](c2ccc(Cl)cc2)C1 [Example 1, (R)-N-piperidinyl-5-(4-chlorophenyl)-1-(2,4-dichlorophenyl)-4,5-dihydro-1H-pyrazole-3-carboxamide]
